Consider 78 compounds from PubChem BioAssay AID489032 (Sanford-Burnham Center for Chemical Genomics, 2010).

The experiment has as its system UPR adaptive arm reporter cells, luciferase luminescence. Description: adaptive unfolded protein response reporter activation – cell-based, luciferase luminescence, dose response (AID 489032).

Activity calls are given as the source filed them. No rule for the calls is given here.

Regarding `CC(C)N(C(=O)[C@H]1C[C@H](CC(=O)NCc2cccc(C(F)(F)F)c2)C(=O)N2CCc3c([nH]c4ccc(Cl)cc34)[C@]12C)C(C)C`, the EC50 (as a rule, the concentration at which the effect is half-maximal) is > 80 µM (inactive).
`O=c1cc2oc3cc(O)c(O)cc3c(-c3ccccc3[N+](=O)[O-])c-2cc1O`: the EC50 was > 80 µM (inactive).
In the case of `COc1cc(SC#N)ccc1N=Cc1c(C)[nH]n(-c2ccc(Cl)cc2)c1=O`, the EC50 was > 80 µM (inactive).
With `Cc1cnc(NC(=O)c2cc3c(C)nn(Cc4ccccc4Cl)c3s2)s1` the figure was > 80 µM (inactive); with `O=C1Nc2ccccc2/C1=C/c1ccc([N+](=O)[O-])cc1`, > 80 µM (inactive); with `COC(=O)Cc1csc(/N=C/c2c(O)n(-c3cccc(C(F)(F)F)c3)c(=O)c3ccccc23)n1`, > 80 µM (inactive).
Next, `CC(C)(C)c1ccc(C(=O)Nc2ccc(O)c3c(=O)cc(-c4cccc(Cl)c4)oc23)cc1`: > 80 µM (inactive); `COc1ccc(OC)c(-c2nnc3n2N=C(c2ccc(OC)c(OC)c2)CS3)c1`: > 80 µM (inactive).
With `CC1=C(/C=C/C(C)=C/C=C/C(C)=C/C(=O)Nc2ccc(O)cc2)C(C)(C)CCC1` the figure was > 80 µM (inactive).
Turning to `Oc1cccc2ccc(/C=C/c3ccc(Br)s3)nc12`, the EC50 was > 80 µM (inactive).
Next, `COc1ccc(OC)c(NC(=O)c2oc3ccccc3c2NC(=O)C2CC2)c1`: > 80 µM (inactive); `O=C(Nc1ccc(SC(F)F)cc1)c1cc(-c2ccncc2)nc2ccccc12`: 34.7 µM (inactive); `O=C(NCCc1ccc(O)c(O)c1)C1COc2ccccc2O1` (stereo not drawn): 66.1 µM (inactive).
With `COc1ccc2c(c1)NC(c1cc(Cl)cc(Cl)c1O)c1cccn1-2` (stereo not drawn) the figure was 33.3 µM (inactive); with `CC(C)c1cccc(-c2ccc3c(c2)S(=O)(=O)c2cccc(C(=O)NCc4ccccc4Cl)c2C3=O)c1`, 38.4 µM (inactive); with `O=C(COC(=O)/C=C/c1cn(-c2ccccc2)nc1-c1cccnc1)Nc1ccc(Cl)cc1Cl`, > 80 µM (inactive).
As for `CCOC(=O)C(=CNc1nc(-c2ccccc2)c(C(=O)Nc2ccc(-c3ccccc3)cc2)s1)C(=O)OCC`, the EC50 is 24.7 µM (inactive).
Next, `Cc1cc(C)cc(NC(=O)/C(C#N)=C/c2cn(CC(=O)NCc3ccco3)c3ccccc23)c1`: 9.17 µM.
With `Cc1ccc(Nc2nc3ccc(Cl)cc3n3cnnc23)cc1F` the figure was > 80 µM (inactive); with `O=C(COc1ccc(Cl)cc1Cl)NN=C1c2ccccc2-c2ccccc21`, > 80 µM (inactive); with `Cc1ccc(CNC(=O)c2ccc3c(=O)n4c(-c5ccc(C)cc5)csc4nc3c2)cc1`, > 80 µM (inactive).
Next, `CN1/C(=C\C(=O)COC(=O)c2ccc(O)c(O)c2)C(C)(C)c2ccccc21`: > 80 µM (inactive); `COc1cc(NC(=O)c2cncc(-c3ccc(C#N)cc3)c2)cc(C(=O)Nc2cccc(C(F)(F)F)c2)c1`: 46.3 µM (inactive); `O=C(NC(=S)Nc1cc(-c2nc3ccccc3[nH]2)ccc1Cl)c1ccc2c(c1)OCO2`: 10.1 µM.
Regarding `CC1=CC(C)[C@H](/C=N/n2c(=O)[nH]c3c([nH]c4ccc(C)cc43)c2=O)C(C)C1` (stereo partly drawn), the EC50 was > 80 µM (inactive).
For `Cn1ncc(N=Cc2c(O)ccc3ccccc23)c1C(=O)Nc1cccc(Cl)c1`, the EC50 was > 80 µM (inactive).
With `Cc1ccc2c(c1)C(=O)C(=O)N2Cc1ccc(Cl)cc1` the figure was 57.2 µM (inactive); with `CCOc1ccc(-n2nc3ccc(NC(=O)c4ccc5c(c4)OCCO5)cc3n2)cc1`, > 80 µM (inactive).
With `Cc1cccc2cc(C(c3nnnn3Cc3ccccc3)N3CCCc4ccccc43)c(=O)[nH]c12` (stereo not drawn) the figure was 32.5 µM (inactive).
Next, `CC1CCN(Cc2c(C(=O)N/N=C/c3ccc(C(C)(C)C)cc3)nnn2-c2nonc2N)CC1`: > 80 µM (inactive).
As to `CCOc1ccc(-c2nnc(SCC(=O)Nc3ccc4c(c3)c3ccccc3n4CC)n2N)cc1`, the EC50 was > 80 µM (inactive).
Next, `Cc1cc(C)c2c(c1)/C(=c1/sc3n(c1=O)CN(c1ccccc1)CN=3)C(=O)N2`: 19.2 µM; `COc1cc(/C=C2/C(=N)N3C=CSC3=NC2=O)ccc1OCCCOc1cc(C)ccc1C`: > 80 µM (inactive).
With `Cc1cccc2sc(NC(=O)c3cc(S(=O)(=O)N(C)C)ccc3N3CCCC3)nc12` the figure was 9.84 µM; with `Cc1cc(C)nc(SCc2ccc(C(=O)N/N=C/c3cccc(O)c3O)cc2)n1`, > 80 µM (inactive).
For the compound `CCOc1cc(/C=N/N=C(\N)c2nonc2N)cc(Br)c1OCc1cccc2ccccc12`, the EC50 is > 80 µM (inactive).
With `Cn1c(/C=C/c2ccc(Cl)cc2Cl)c([N+](=O)[O-])c(=O)n(C)c1=O` the figure was > 80 µM (inactive); with `CC(C)(C)c1cc(-c2nc(N)nc(N)n2)c(O)c(C(C)(C)C)c1`, 38.8 µM (inactive); with `Cc1cc(N2CCN(c3nc(-c4ccc([N+](=O)[O-])cc4)cs3)CC2)c2ccccc2n1`, > 80 µM (inactive).
For `Brc1cc(Br)c2ncnc(N3CCCCC3)c2c1`, the EC50 was 44.5 µM (inactive).
As to `N/C(=N\c1nc(CSc2ccccn2)cc(=O)[nH]1)Nc1ccc(Cl)cc1Cl`, the EC50 was > 80 µM (inactive).
With `C#CCOCCOCCOCCNc1nc(N2CCN(C(=O)CCCCCCCCCCNC(=O)[C@H](CCCCN)n3cc(C[C@@H](C)CC)nn3)CC2)nc(N2CCN(C(=O)CCCCCCCCCCNC(=O)[C@H](CCCN=C(N)N)n3cc(C[C@@H](C)CC)nn3)CC2)n1` the figure was > 80 µM (inactive); with `C#CCn1c(=NC(=O)c2ccc(Br)s2)sc2cccc(OC)c21`, > 80 µM (inactive).
For the compound `Cc1cc(C)c2c(CCl)cc(=O)oc2c1`, the EC50 is > 80 µM (inactive).
Next, `CC1=CC(C)[C@H](/C=N/n2c(=O)[nH]c3c([nH]c4ccc(Br)cc43)c2=O)C(C)C1` (stereo partly drawn): > 80 µM (inactive); `CC(=O)Nc1ccccc1Sc1ccc2c3c(cccc13)C(=O)N(c1ccc(C)cc1)C2=O`: > 80 µM (inactive).
With `CCCNC(=O)c1c(N)n(-c2ccc3c(c2)OCO3)c2nc3ccccc3nc12` the figure was > 80 µM (inactive); with `CCc1ccc(-c2cc(C(F)(F)F)n3nc(C(=O)Nc4cnn(Cc5ccc(C)cc5)c4)cc3n2)s1`, 4.24 µM; with `Cc1ccc(C(=O)Cn2c(C(=O)/C=C/c3ccccc3)nc3ccccc32)cc1`, 44.8 µM (inactive).
Next, `CCOC(=O)C1=C(O)/C(=C/c2cn(CC(=O)NCC3CCCO3)c3ccccc23)SC1=Nc1ccc(C)cc1` (stereo not drawn): > 80 µM (inactive).
For the compound `OCCCn1c(C2CCCN2c2nc(-c3ccc(F)cc3)cs2)nc2cc(Cl)c(N3CCCCC3)cc21` (stereo not drawn), the EC50 is > 80 µM (inactive).
With `O=C(Nc1cccc(-c2nc3cccnc3s2)c1)C1c2ccccc2Oc2ccccc21` the figure was 4.67 µM; with `C=CCN(CC=C)S(=O)(=O)c1ccc(C(=O)Nc2nc3c(s2)CCc2ccccc2-3)cc1`, 39.9 µM (inactive).
With `COC(=O)c1sccc1NC(=O)c1cc(-c2cccc(C)c2)nc2ccccc12` the figure was > 80 µM (inactive).
With `O=C(NCC1CC1)c1cccc2c1C(=O)c1ccc(-c3ccc(OC(F)(F)F)cc3)cc1S2(=O)=O` the figure was > 80 µM (inactive).
Consider `Cc1ccc(NC(=O)c2cc(S(=O)(=O)N(C)C)ccc2N2CCCC2)cc1F`, for which the EC50 is 37.6 µM (inactive).
On to `CC(C)c1ccc(C2C3=C(COC3=O)Nc3cc4c(cc32)OCO4)cc1` (stereo not drawn), for which the EC50 is 48.9 µM (inactive).
Next, `CN(C)S(=O)(=O)c1ccc(N2CCCC2)c(C(=O)Nc2nc3ccccc3s2)c1`: 15.7 µM; `COc1ccc(N=c2oc3ccc(OC)cc3cc2-c2nc3ccccc3[nH]2)cc1`: 15.3 µM; `CC1CCN(Cc2c(C(=O)N/N=C/c3ccc(C(C)C)cc3)nnn2-c2nonc2N)CC1`: > 80 µM (inactive).
Next, `CCOc1ccc(NC(=S)NC(=O)/C=C/c2ccc(OC)c(OC)c2)c([N+](=O)[O-])c1`: > 80 µM (inactive); `Cc1ccc(NC(=O)c2nc[nH]c2C(=O)NCCCNC(=O)c2[nH]cnc2C(=O)Nc2ccc(C)cc2)cc1`: > 80 µM (inactive); `C/C(Cl)=C\Cn1c(O)c(N=NC(N)=S)c2cc(Br)ccc21`: 4.06 µM.
Next, `O=C(Nc1ccc(NC(=O)c2sc3ccccc3c2Cl)cc1Cl)c1ccco1`: 22 µM (inactive); `CCCOC(=O)c1cccc(Nc2nc(-c3cccnc3)nc3ccccc23)c1`: > 80 µM (inactive).
Consider `CCOc1ccccc1NC(=O)Cn1c(=O)n(-c2ccccc2)c(=O)c2oc3ccccc3c21`, for which the EC50 was > 80 µM (inactive).
Turning to `CC1C/C(=N/Nc2nc3ccccc3[nH]2)CC(C)(C)C1` (stereo not drawn), the EC50 was > 80 µM (inactive).
Next, `Cc1ccc(N=Cc2c(O)n(-c3ccc4c(c3)OCO4)c(=O)c3ccccc23)cc1`: > 80 µM (inactive); `CCC(C)(C)C1CCC2(CC1)NC(=O)N(CC(=O)N1CCN(S(=O)(=O)c3cc(C)ccc3C)CC1)C2=O` (stereo not drawn): 27.2 µM (inactive); `CCc1nn(-c2cc(Oc3cccc4ccccc34)nc(-c3ccccc3)n2)c(N)c1C#N`: 49.2 µM (inactive).
Regarding `CCNC(=O)c1c(NC(=O)c2cc(-c3cc(C)ccc3O)n[nH]2)sc2c1CCCC2`, the EC50 was > 80 µM (inactive).
With `O=C(Nc1ccc(-c2nc3cc(NC(=O)c4cccs4)ccc3o2)cc1)c1cccs1` the figure was 4.31 µM; with `N#Cc1ccccc1/C=N/Nc1nc(-c2ccccc2)c2cc(Cl)ccc2n1`, > 80 µM (inactive).
Next, `O=[N+]([O-])c1cccc(/C=C/c2ccc3cccc(O)c3n2)c1`: 28.7 µM (inactive); `CCOC(=O)C1=C(C)N=C2SC(C(=O)OC)=CC(=O)N2C1c1ccc(F)cc1` (stereo not drawn): 32.6 µM (inactive).
With `CCCCNc1c(-c2ccc(-c3ccc(C(C)=O)cc3)c(OC)c2)nc2cc(C)ccn12` the figure was > 80 µM (inactive); with `Cc1nn(Cc2c(Cl)cccc2Cl)c(C)c1NC(=O)c1sc2ccccc2c1Cl`, 29.8 µM (inactive).
Consider `Cc1ccc(CN2C(=O)C(=O)c3cc(C)ccc32)cc1`, for which the EC50 is 58.6 µM (inactive).
